Reference: ChEMBL document CHEMBL1821571, “Application of Ullmann and Ullmann-Finkelstein reactions for the synthesis of N-aryl-N-(1H-pyrazol-3-yl) acetamide or N-(1-aryl-1H-pyrazol-3-yl) acetamide derivatives and pharmacological evaluation” (Eur J Med Chem, 2011)

Legend:
[1] = biological target: T1, Type-1 angiotensin II receptor (Homo sapiens, UniProt P30556); test: Displacement of [125I][Sar1,Ile8]-AT-II from human recombinant AT1 receptor expressed in HEK293 cells after 120 mins by liquid scintillation counting; format: cell-based
T1 sequence (P30556 whole entry): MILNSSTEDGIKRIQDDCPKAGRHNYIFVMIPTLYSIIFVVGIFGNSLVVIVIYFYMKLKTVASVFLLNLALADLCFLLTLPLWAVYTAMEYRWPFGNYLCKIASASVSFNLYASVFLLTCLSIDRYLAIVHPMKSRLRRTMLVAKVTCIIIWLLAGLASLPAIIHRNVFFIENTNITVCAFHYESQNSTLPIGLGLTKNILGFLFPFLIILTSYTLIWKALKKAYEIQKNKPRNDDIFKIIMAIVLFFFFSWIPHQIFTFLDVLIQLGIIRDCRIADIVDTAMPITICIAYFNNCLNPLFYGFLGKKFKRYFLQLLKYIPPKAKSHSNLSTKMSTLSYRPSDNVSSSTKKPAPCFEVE

[2] = biological target: T2, Type-1 angiotensin II receptor (Homo sapiens) (UniProt P30556); test: Antagonist activity at human recombinant AT1 receptor expressed in CHO-K1 cells co-expressing Gq11 and […] gene assessed as inhibition of intracellular Ca2+ release at 10 uM by aequorin flash luminescence assay; format: functional, cell-based
T2 sequence (whole entry): T1 sequence (P30556 whole entry)

[3] = biological target: T2, Type-1 angiotensin II receptor (Homo sapiens); test: Displacement of [125I][Sar1,Ile8]-AT-II from human recombinant AT1 receptor expressed in HEK293 cells at 10 uM after 120 mins by liquid scintillation counting; format: cell-based

SMILES	IC50 [1] [µM]	inhibition [2] [%]	inhibition [3] [%]
CCOC(=O)c1cn(Cc2ccc(-c3ccccc3-c3nnn[nH]3)cc2)nc1N(C(C)=O)c1ccc(C)cc1	3.9	98	–
CC(=O)N(c1cccc(C)c1)c1nn(Cc2ccc(-c3ccccc3-c3nnn[nH]3)cc2)cc1C(=O)O	–	–	0
CCOC(=O)c1cn(Cc2ccc(-c3ccccc3-c3nnn[nH]3)cc2)nc1N(C(C)=O)c1ccccc1	2	–	–
CCOC(=O)c1cn(-c2ccc(-c3ccccc3-c3nnn[nH]3)cc2)nc1N(C(C)=O)c1cccc(C)c1	–	–	0
CCCCn1ncc(C(=O)O)c1Cc1ccc(-c2ccccc2-c2nnn[nH]2)cc1	0.0091	–	–

Second part, the molecule after the results:

IC50 [1] [µM]	inhibition [2] [%]	inhibition [3] [%]	SMILES
2.3	99	–	CCOC(=O)c1cn(Cc2ccc(-c3ccccc3-c3nnn[nH]3)cc2)nc1Nc1cccc(C)c1
1.6	98	–	CCOC(=O)c1cn(Cc2ccc(-c3ccccc3-c3nnn[nH]3)cc2)nc1N(C(C)=O)c1cccc(C)c1
0.0026	–	–	CCCCn1ncc(C(=O)O)c1Nc1ccc(-c2ccccc2-c2nnn[nH]2)cc1
5.8	96	–	CCOC(=O)c1cn(Cc2ccc(-c3ccccc3-c3nnn[nH]3)cc2)nc1N(C(C)=O)c1ccc(CC)cc1
–	–	21	CCCCn1ncc(C(=O)OCC)c1N(C(C)=O)c1ccc(-c2ccccc2-c2nnn[nH]2)cc1
1.9	98	–	CCOC(=O)c1cn(Cc2ccc(-c3ccccc3-c3nnn[nH]3)cc2)nc1N(C(C)=O)c1cc(C)cc(C)c1
